Laboratory results from the NIST ThermoML archive (doi:10.1021/je060429r).

Conditions: Transpiration method

Oc1c(Cl)cccc1Cl [2,6-dichlorophenol]
Conditions	vapor or sublimation pressure [kPa]
298.5 K, Crystal	0.0073
301.6 K, Crystal	0.01
304.6 K, Crystal	0.0137
307.4 K, Crystal	0.0183
310.4 K, Crystal	0.0245
313.4 K, Crystal	0.0331
316.4 K, Crystal	0.0437
319.4 K, Crystal	0.0591
322.4 K, Crystal	0.0774
325.4 K, Crystal	0.1006
328.4 K, Crystal	0.1312
331.3 K, Crystal	0.1685
341.2 K, Liquid	0.3444
344.7 K, Liquid	0.4173
347.3 K, Liquid	0.4838
350.3 K, Liquid	0.5727
353.3 K, Liquid	0.6745
356.3 K, Liquid	0.7745
360.3 K, Liquid	0.9734
363.3 K, Liquid	1.143
366.3 K, Liquid	1.315
371.4 K, Liquid	1.664

Oc1ccccc1Cl [2-chlorophenol]
Liquid
Conditions	vapor or sublimation pressure [kPa]
288.4 K	0.0863
291.3 K	0.1102
294.3 K	0.1378
297.3 K	0.1681
300.3 K	0.2059
303.3 K	0.2559
306.2 K	0.3083
309.2 K	0.3763
312.2 K	0.4633
315.2 K	0.5579
318.2 K	0.6649
321.2 K	0.7992

Oc1ccc(Cl)c(Cl)c1 [3,4-dichlorophenol]
Conditions	vapor or sublimation pressure [kPa]
291.4 K, Crystal	0.00027
294.3 K, Crystal	0.0004
300.3 K, Crystal	0.00086
303.5 K, Crystal	0.00121
306.7 K, Crystal	0.00177
309.5 K, Crystal	0.00247
314.3 K, Crystal	0.00423
317.2 K, Crystal	0.00587
320.4 K, Crystal	0.00806
323.3 K, Crystal	0.01069
326.3 K, Crystal	0.01474
329.3 K, Crystal	0.01992
332.3 K, Crystal	0.02618
335.3 K, Crystal	0.03423
337.3 K, Crystal	0.04096
341.3 K, Liquid	0.057
344.3 K, Liquid	0.0703
347.2 K, Liquid	0.0854
350.3 K, Liquid	0.1055
353.2 K, Liquid	0.127
356.3 K, Liquid	0.1544
359.2 K, Liquid	0.1858
362.2 K, Liquid	0.223
365.4 K, Liquid	0.2696
368.4 K, Liquid	0.3217

Oc1cccc(Cl)c1 [3-chlorophenol]
Conditions	vapor or sublimation pressure [kPa]
275.3 K, Crystal	0.00082
276.6 K, Crystal	0.00095
278.3 K, Crystal	0.00115
280.3 K, Crystal	0.00149
283.2 K, Crystal	0.00212
285.2 K, Crystal	0.00262
288.3 K, Crystal	0.00366
291.3 K, Crystal	0.00509
294.3 K, Crystal	0.00721
297.3 K, Crystal	0.00999
300.3 K, Crystal	0.01323
302.2 K, Crystal	0.01626
306 K, Crystal	0.02395
308.3 K, Liquid	0.0294
311.1 K, Liquid	0.0361
314.2 K, Liquid	0.0455
317.2 K, Liquid	0.058
320.3 K, Liquid	0.073
323.2 K, Liquid	0.0905
326.2 K, Liquid	0.1116
329.2 K, Liquid	0.1366
332.2 K, Liquid	0.1669
335.2 K, Liquid	0.2002

Oc1ccc(Cl)cc1 [4-chlorophenol]
Conditions	vapor or sublimation pressure [kPa]
283.2 K, Crystal	0.00132
288.2 K, Crystal	0.00236
291.2 K, Crystal	0.00332
294.2 K, Crystal	0.00459
297.2 K, Crystal	0.00622
300.2 K, Crystal	0.00839
303.2 K, Crystal	0.01163
306.2 K, Crystal	0.01571
309.2 K, Crystal	0.02076
311.2 K, Crystal	0.02535
313.2 K, Crystal	0.03092
318.2 K, Liquid	0.0485
321.2 K, Liquid	0.0615
324.2 K, Liquid	0.0754
327.2 K, Liquid	0.0926
330.2 K, Liquid	0.1141
333.2 K, Liquid	0.1388
336.2 K, Liquid	0.1699
339.2 K, Liquid	0.2022
342.2 K, Liquid	0.2534
345.2 K, Liquid	0.3058
348.2 K, Liquid	0.3684
351.2 K, Liquid	0.4409

Clc1c(Cl)c(Cl)c(Cl)c(Cl)c1Cl [hexachlorobenzene]
Crystal
Conditions	vapor or sublimation pressure [kPa]
358 K	0.00144
362.9 K	0.00216
368.9 K	0.00373
373.1 K	0.00519
377.8 K	0.00771
382.9 K	0.01123
389 K	0.01836
392.8 K	0.0238
397.9 K	0.03341
402.8 K	0.04901

Oc1c(Cl)c(Cl)c(Cl)c(Cl)c1Cl [pentachlorophenol]
Crystal
Conditions	vapor or sublimation pressure [kPa]
348.1 K	0.00127
353.1 K	0.00206
358 K	0.00304
363 K	0.00483
367.8 K	0.00681
371.9 K	0.00975
378.1 K	0.01517
383 K	0.02172
388.9 K	0.03268
393.2 K	0.04374
397.8 K	0.06045
399.8 K	0.07143
403.2 K	0.09099
